Measured values from the NIST ThermoML archive (doi:10.1021/acs.jced.7b00267).
Numbers after ± are expanded uncertainties.

Settings: 101.35 kPa, Liquid; for viscosity: Falling or rolling sphere viscometry; for mass density: Vibrating tube method

In the case of `CCO` [ethanol], the viscosity (293.15 K) is reported as 1.194 ± 0.037 mPa·s, the mass density (293.15 K) is reported as 789.5 ± 0.4 kg/m3 and the viscosity (298.15 K) is reported as 1.085 ± 0.034 mPa·s. The mass density (298.15 K) was 785.2 ± 0.4 kg/m3, the viscosity (303.15 K) was 0.9897 ± 0.031 mPa·s and the mass density (303.15 K) was 780.8 ± 0.4 kg/m3. The viscosity (308.15 K) was 0.9036 ± 0.028 mPa·s, the mass density (308.15 K) was 776.5 ± 0.4 kg/m3 and the viscosity (313.15 K) was 0.8277 ± 0.026 mPa·s. The mass density (313.15 K) was 772.1 ± 0.4 kg/m3, the viscosity (318.15 K) was 0.759 ± 0.023 mPa·s and the mass density (318.15 K) was 767.7 ± 0.4 kg/m3. It also gave a viscosity (323.15 K) of 0.6978 ± 0.022 mPa·s, a mass density (323.15 K) of 763.2 ± 0.4 kg/m3 and a viscosity (328.15 K) of 0.6434 ± 0.02 mPa·s. It also gave a mass density (328.15 K) of 758.7 ± 0.4 kg/m3, a viscosity (333.15 K) of 0.5942 ± 0.018 mPa·s and a mass density (333.15 K) of 754.1 ± 0.4 kg/m3.
